Results reported in patent US8143296B2, “Thiazole-based compound and inhibitor of T-type calcium channel containing the same” (Korea Institute of Science and Technology, priority 2006, dated 2012).
Counter-ions that a name gives are not always drawn.

Molecular target: T1, α1G T-type calcium channel (Homo sapiens, UniProt O43497)
T1 construct: host or cells: HEK293
Experiment: Assay for % inhibiting activity against T-type calcium channel using FDSS6000
Type: cell-based
Details: HEK293 cells expressing α1G, Table 3 (Chemical Formula 2 series); for inhibition at 10 µM: HEK293, 10 μM
Protocol: In the present invention, in order to search an efficient inhibitor against T-type calcium channel, a primary assay for T-type calcium channel inhibiting activity was conducted by a high-efficient assay using FDSS6000, wherein mammal HEK293 cell lines (originated from human kidney carcinoma cells) which specifically expresses α1G of T-type calcium channel was used for primary assay. Through the primary assay, compounds which show meaningful inhibition effects were selected. The selected compounds were used in a second assay for T-type calcium channel inhibiting activity using electrophysiological whole cell patch clamp method, wherein mammal HEK293 cell lines (originated from human kidney carcinoma cells) which specifically expresses α1G of T-type calcium channel was used for the second assay.
At 12-24 hours before being used for this assay, cells of HEK293 cell line (α1G cell line: KCTC 10519BP, Korean Collection for Type Cultures), which stably express α1G T-type calcium channel and Kir2.1, were sub-cultured in a poly-L-lysine treated 96-well plate with the density of 4×10^4 per a well using a 96-well cell dispenser (Titertek). On the of assay, the 96-well plate to which the cells were attached were washed three times with HEPES buffer solution (150 mM of NaCl, 5 mM of KCl, 1 mM of MgCl2, 2 mM of CaCl2, 10 mM of HEPES, 10 mM of glucose; pH 7.4) using a 96-well plate automatic washing device (Bio Tek), then reacted with HEPES buffer solution containing 5 μM fluo-3/AM and 0.001% Pluronic F-127 under room temperature for 1 hour, to label with fluorescent dye, and then further washed two times with HEPES buffer solution.
Thereafter, at 10 minutes before the measurement using device FDSS6000, a washing with HEPES buffer solution containing 10 mM CaCl2 was conducted once more, and the final volume was adjusted to 81 μl. Besides the above 96-well plate containing the cells, additional two drug 96-well plates were provided, wherein the 96-well plates contain inhibiting drug and KCl (final concentration: 75 mM) for activating T-type calcium channel, respectively. Since most of cell-based HTS devices are equipped with a liquid application system for injection of drug, but have no liquid sucking system, the inhibiting drug to be tested and KCl were respectively provided at the five-times higher concentration in 10 mM CaCl2 HEPES buffer solution at the amount of 27 μl, diluted five-times at the final cell plate volume of 135 μl, and then used in this test. The concrete method of measurement using FDSS6000 was as follows: After recording the reference value of 20 seconds, the change of intracellular Ca^2+ concentration which induced by treatment of the inhibiting drug to be tested for 75 seconds followed by administration of KCl was measured, wherein the percentage (%) inhibition effect of the test drug, through estimating the area of ratio value of 340/380 in the control without treatment of the test drug as 100%. As a reference drug, mibefradil was used.
For accurate calcium-imagination, the light source of 4 xenon lamps in FDSS6000 were radiated to make the cells exposed selectively to the excitation wavelength (340 nm and 380 nm) by computer-controlled filter wheel. Data was obtained at interval of each 1.23 second. The emitter fluorescence light inflowed through long-pass filter was obtained as an average 340/380 ratio value for each well in the 96-wells by using CCD camera and digital fluorescence analyzer in FDSS6000. All image data and analyses were obtained by using FDSS6000-exclusive program provide from Hamamatsu Photonics.

T1 sequence (O43497 whole entry): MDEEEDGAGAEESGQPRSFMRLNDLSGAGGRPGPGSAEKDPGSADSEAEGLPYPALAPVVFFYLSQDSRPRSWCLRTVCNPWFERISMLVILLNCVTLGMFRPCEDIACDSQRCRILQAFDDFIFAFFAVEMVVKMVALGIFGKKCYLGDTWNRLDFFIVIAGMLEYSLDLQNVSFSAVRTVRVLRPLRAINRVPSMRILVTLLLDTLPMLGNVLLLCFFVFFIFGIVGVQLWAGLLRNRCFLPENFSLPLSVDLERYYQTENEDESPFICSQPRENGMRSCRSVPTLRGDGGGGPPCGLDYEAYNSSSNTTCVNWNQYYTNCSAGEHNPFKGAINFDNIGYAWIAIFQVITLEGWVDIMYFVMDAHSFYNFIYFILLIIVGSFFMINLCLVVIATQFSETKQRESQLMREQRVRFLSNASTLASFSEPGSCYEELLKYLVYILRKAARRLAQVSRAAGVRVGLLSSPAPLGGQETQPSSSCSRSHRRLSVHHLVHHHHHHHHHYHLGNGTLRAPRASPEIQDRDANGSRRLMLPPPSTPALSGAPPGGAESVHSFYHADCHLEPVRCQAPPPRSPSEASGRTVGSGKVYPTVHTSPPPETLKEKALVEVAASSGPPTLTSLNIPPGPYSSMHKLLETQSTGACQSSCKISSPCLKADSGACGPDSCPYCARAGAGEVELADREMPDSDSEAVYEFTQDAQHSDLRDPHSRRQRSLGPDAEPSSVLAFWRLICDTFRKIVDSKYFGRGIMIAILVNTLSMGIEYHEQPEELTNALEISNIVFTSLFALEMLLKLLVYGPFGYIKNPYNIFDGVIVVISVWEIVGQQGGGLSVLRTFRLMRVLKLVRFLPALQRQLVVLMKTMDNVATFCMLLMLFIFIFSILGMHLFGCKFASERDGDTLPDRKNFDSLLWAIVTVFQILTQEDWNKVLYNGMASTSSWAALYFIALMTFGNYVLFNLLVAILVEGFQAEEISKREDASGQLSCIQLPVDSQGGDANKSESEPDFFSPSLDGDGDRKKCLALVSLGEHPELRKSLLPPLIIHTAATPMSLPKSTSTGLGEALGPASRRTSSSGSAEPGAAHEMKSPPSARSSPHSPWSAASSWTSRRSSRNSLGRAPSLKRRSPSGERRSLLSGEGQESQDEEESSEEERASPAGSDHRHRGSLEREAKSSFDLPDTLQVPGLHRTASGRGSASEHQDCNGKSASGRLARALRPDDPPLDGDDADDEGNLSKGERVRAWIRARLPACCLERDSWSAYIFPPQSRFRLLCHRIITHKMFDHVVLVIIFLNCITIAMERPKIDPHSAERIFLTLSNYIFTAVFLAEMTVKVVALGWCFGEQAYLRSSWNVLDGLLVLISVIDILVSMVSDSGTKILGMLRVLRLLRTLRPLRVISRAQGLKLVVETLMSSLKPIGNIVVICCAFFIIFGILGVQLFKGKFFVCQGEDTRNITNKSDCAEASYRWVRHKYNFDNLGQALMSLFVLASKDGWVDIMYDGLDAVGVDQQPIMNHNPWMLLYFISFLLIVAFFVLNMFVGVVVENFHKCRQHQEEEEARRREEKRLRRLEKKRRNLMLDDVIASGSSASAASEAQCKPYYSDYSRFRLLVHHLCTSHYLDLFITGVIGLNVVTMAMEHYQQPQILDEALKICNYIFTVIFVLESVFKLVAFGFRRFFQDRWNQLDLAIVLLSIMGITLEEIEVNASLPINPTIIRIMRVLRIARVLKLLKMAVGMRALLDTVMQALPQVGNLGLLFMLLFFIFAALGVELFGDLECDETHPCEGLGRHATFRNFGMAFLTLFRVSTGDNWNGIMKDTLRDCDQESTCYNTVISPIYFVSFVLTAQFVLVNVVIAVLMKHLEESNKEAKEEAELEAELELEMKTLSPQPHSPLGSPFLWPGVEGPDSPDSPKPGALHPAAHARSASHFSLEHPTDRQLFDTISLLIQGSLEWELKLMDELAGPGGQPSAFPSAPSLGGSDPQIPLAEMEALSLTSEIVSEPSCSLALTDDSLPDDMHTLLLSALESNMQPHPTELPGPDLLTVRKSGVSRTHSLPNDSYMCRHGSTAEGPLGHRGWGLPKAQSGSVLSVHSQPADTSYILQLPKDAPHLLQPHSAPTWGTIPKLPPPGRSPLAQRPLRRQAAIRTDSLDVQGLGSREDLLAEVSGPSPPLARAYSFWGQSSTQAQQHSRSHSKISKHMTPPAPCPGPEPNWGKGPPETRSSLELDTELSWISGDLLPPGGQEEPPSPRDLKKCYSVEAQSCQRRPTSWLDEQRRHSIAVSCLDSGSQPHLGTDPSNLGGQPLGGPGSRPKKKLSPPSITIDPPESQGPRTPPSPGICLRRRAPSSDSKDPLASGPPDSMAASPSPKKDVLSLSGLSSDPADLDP

inhibition at 10 µM	% Inhibition [α1G, 10 μM) using FDSS6000 (10 μM, hydrochloride)	Compound
21.6%		NC(N)=Nc1nc(CC(=O)Nc2cc([N+](=O)[O-])ccc2F)cs1 [KHG23168, 2-(2-(diaminomethyleneamino)thiazole-4-yl)-N-(2-fluoro-5-nitrophenyl)acetamide hydrochloride]
21%		NC(N)=Nc1nc(CC(=O)NCCc2ccc(F)cc2)cs1 [KHG23190, 2-(2-(diaminomethyleneamino)thiazole-4-yl)-N-(4-fluorophenethyl)acetamide hydrochloride]
14.7%		CC(C)c1ccc(NC(=O)Cc2csc(N=C(N)N)n2)cc1 [KHG23379, 2-(2-(diaminomethyleneamino)thiazole-4-yl)-N-(4-isopropylphenyl)acetamide hydrochloride]
11.4%		NC(N)=Nc1nc(CC(=O)Nc2ccc([N+](=O)[O-])cc2)cs1 [KHG23380, 2-(2-(diaminomethyleneamino)thiazole-4-yl)-N-(4-nitrophenyl)acetamide hydrochloride]
6.2%		CCCCCCCCCCc1ccc(NC(=O)Cc2csc(N=C(N)N)n2)cc1 [KHG23381, N-(4-decylphenyl)-2-(2-(diaminomethyleneamino)thiazole-4-yl)acetamide hydrochloride]
24%		CCOC(=O)c1cccc(NC(=O)Cc2csc(N=C(N)N)n2)c1 [KHG23382, ethyl 3-(2-(2-(diaminomethyleneamino)thiazole-4-yl)acetamido)benzoate hydrochloride]
5.7%		CCCCCCc1ccc(NC(=O)Cc2csc(N=C(N)N)n2)cc1 [KHG23383, 2-(2-(diaminomethyleneamino)thiazole-4-yl)-N-(4-hexylphenyl)acetamide hydrochloride]
5.9%		CCOC(=O)c1ccc(NC(=O)Cc2csc(N=C(N)N)n2)cc1 [KHG23385, ethyl 4-(2-(2-(diaminomethyleneamino)thiazole-4-yl)acetamido)benzoate hydrochloride]
	4.5%	CCCCCCc1ccc(NC(=O)Cc2csc(N=C(N)N)n2)cc1.Cl [KHG23386, 2-(2-(diaminomethyleneamino)thiazole-4-yl)-N-(4-hexylphenyl)acetamide hydrochloride]
3.2%		N#CCc1ccc(NC(=O)Cc2csc(N=C(N)N)n2)cc1 [KHG23387, N-(4-(cyanomethyl)phenyl)-2-(2-(diaminomethyleneamino)thiazole-4-yl)acetamide hydrochloride]
25.4%		NC(N)=Nc1nc(CC(=O)Nc2ccc(Oc3ccccc3)cc2)cs1 [KHG23389, 2-(2-(diaminomethyleneamino)thiazole-4-yl)-N-(4-phenoxyphenyl)acetamide hydrochloride]
0.8%		NC(N)=Nc1nc(CC(=O)Nc2c(Cl)cc(C(F)(F)F)cc2Cl)cs1 [KHG23391, 2-(2-(diaminomethyleneamino)thiazole-4-yl)-N-(2,6-dichloro-4-(trifluoromethyl)phenyl)acetamide hydrochloride]
22.7%		NC(N)=Nc1nc(CC(=O)Nc2ccc(F)c(F)c2F)cs1 [KHG23392, 2-(2-(diaminomethyleneamino)thiazole-4-yl)-N-(2,3,4-trifluorophenyl)acetamide hydrochloride]
3.8%		COc1ccc(NC(=O)Cc2csc(N=C(N)N)n2)c(C)c1 [KHG23393, 2-(2-(diaminomethyleneamino)thiazole-4-yl)-N-(4-methoxy-2-methylphenyl)acetamide hydrochloride]
41.5%		NC(N)=Nc1nc(CC(=O)Nc2cc(C(F)(F)F)cc(C(F)(F)F)c2)cs1 [KHG23394, N-(3,5-bis(trifluoromethyl)phenyl)-2-(2-(diaminomethyleneamino)thiazole-4-yl)acetamide hydrochloride]

Compound	inhibition at 10 µM	% Inhibition [α1G, 10 μM) using FDSS6000 (10 μM, hydrochloride)
CCCCOc1ccc(NC(=O)Cc2csc(N=C(N)N)n2)cc1 [KHG23384, N-(4-butoxyphenyl)-2-(2-(diaminomethyleneamino)thiazole-4-yl)acetamide hydrochloride]	6.1%	
